Results as given in the supplement of paper PMC10307832.

Tests used:
Test in all cases: relative viability (nuclei count vs DMSO), 5 days (fraction); higher = more cells survive
201T = tested on: 201T
How it was run: (§1)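 Lung cancer cell lines in 1536-well plates were dosed by pin tool the day after seeding, either with one drug alone or with a fixed anchor-drug dose plus five library-drug doses (not always all listed) in √10 steps. After 5 days, cells were fixed and their nuclei stained in one step (final 0.05% Triton X-100, 1% formaldehyde, 1 ug/ml Hoechst), then counted on 4× images. Relative viability is the nuclei count in treated wells divided by that in vehicle wells. Values are medians of duplicate plates.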

A-427 = tested on: A-427
How it was run: as §1

BEN = tested on: BEN
How it was run: as §1

COR-L 105 = tested on: COR-L 105
How it was run: as §1

COR-L23 = tested on: COR-L23
How it was run: as §1

EKVX = tested on: EKVX
How it was run: as §1

HARA = tested on: HARA
How it was run: as §1

HCC-15 = tested on: HCC-15
How it was run: as §1

HCC-44 = tested on: HCC-44
How it was run: as §1

HCC-827 = tested on: HCC-827
How it was run: as §1

LK-2 = tested on: LK-2
How it was run: as §1

NCI-H1437 = tested on: NCI-H1437
How it was run: as §1

NCI-H1666 = tested on: NCI-H1666
How it was run: as §1

NCI-H1792 = tested on: NCI-H1792
How it was run: as §1

NCI-H1975 = tested on: NCI-H1975
How it was run: as §1

NCI-H23 = tested on: NCI-H23
How it was run: as §1

NCI-H358 = tested on: NCI-H358
How it was run: as §1

NCI-H441 = tested on: NCI-H441
How it was run: as §1

NCI-H596 = tested on: NCI-H596
How it was run: as §1

NCI-H650 = tested on: NCI-H650
How it was run: as §1

NCI-H838 = tested on: NCI-H838
How it was run: as §1

SK-MES-1 = tested on: SK-MES-1
How it was run: as §1

SW 900 = tested on: SW 900
How it was run: as §1

CC1(C)CCC(c2ccc(Cl)cc2)=C(CN2CCN(c3ccc(C(=O)NS(=O)(=O)c4ccc(N[C@H](CCN5CCOCC5)CSc5ccccc5)c(S(=O)(=O)C(F)(F)F)c4)cc3)CC2)C1 [Navitoclax] + COc1cccc2cc(-c3nc([C@H]4CC[C@H](C(=O)O)CC4)n4ncnc(N)c34)[nH]c12 [OSI-027] (partner 0.5 µM)
relative viability (201T; first compound 0.005 µM): 0.73
relative viability (201T; first compound 0.01581 µM): 0.805
relative viability (201T; first compound 0.05 µM): 0.392
relative viability (201T; first compound 0.1581 µM): 0.707
relative viability (201T; first compound 0.5 µM): 0.647
relative viability (A-427; first compound 0.005 µM): 0.485
relative viability (A-427; first compound 0.01581 µM): 0.525
relative viability (A-427; first compound 0.05 µM): 0.444
relative viability (A-427; first compound 0.1581 µM): 0.477
relative viability (A-427; first compound 0.5 µM): 0.392
relative viability (BEN; first compound 0.005 µM): 0.286
relative viability (BEN; first compound 0.01581 µM): 0.308
relative viability (BEN; first compound 0.05 µM): 0.333
relative viability (BEN; first compound 0.1581 µM): 0.308
relative viability (BEN; first compound 0.5 µM): 0.281
relative viability (COR-L 105; first compound 0.005 µM): 0.663
relative viability (COR-L 105; first compound 0.01581 µM): 1.01
relative viability (COR-L 105; first compound 0.05 µM): 0.573
relative viability (COR-L 105; first compound 0.1581 µM): 0.775
relative viability (COR-L 105; first compound 0.5 µM): 0.582
relative viability (COR-L23; first compound 0.005 µM): 0.839
relative viability (COR-L23; first compound 0.01581 µM): 0.814
relative viability (COR-L23; first compound 0.05 µM): 0.877
relative viability (COR-L23; first compound 0.1581 µM): 0.785
relative viability (COR-L23; first compound 0.5 µM): 0.779
relative viability (EKVX; first compound 0.005 µM): 0.684
relative viability (EKVX; first compound 0.01581 µM): 0.882
relative viability (EKVX; first compound 0.05 µM): 0.651
relative viability (EKVX; first compound 0.1581 µM): 0.686
relative viability (EKVX; first compound 0.5 µM): 0.737
relative viability (HARA; first compound 0.005 µM): 0.538
relative viability (HARA; first compound 0.01581 µM): 0.684
relative viability (HARA; first compound 0.1581 µM): 0.66
relative viability (HARA; first compound 0.5 µM): 0.459
relative viability (HCC-15; first compound 0.005 µM): 0.695
relative viability (HCC-15; first compound 0.01581 µM): 0.746
relative viability (HCC-15; first compound 0.05 µM): 0.573
relative viability (HCC-15; first compound 0.1581 µM): 0.699
relative viability (HCC-15; first compound 0.5 µM): 0.624
relative viability (HCC-44; first compound 0.05 µM): 0.627
relative viability (HCC-44; first compound 0.5 µM): 0.404
relative viability (HCC-827; first compound 0.005 µM): 0.767
relative viability (HCC-827; first compound 0.01581 µM): 0.951
relative viability (HCC-827; first compound 0.05 µM): 0.74
relative viability (HCC-827; first compound 0.1581 µM): 0.761
relative viability (HCC-827; first compound 0.5 µM): 0.812
relative viability (LK-2; first compound 0.005 µM): 0.204
relative viability (LK-2; first compound 0.01581 µM): 0.256
relative viability (LK-2; first compound 0.05 µM): 0.182
relative viability (LK-2; first compound 0.1581 µM): 0.174
relative viability (LK-2; first compound 0.5 µM): 0.193
relative viability (NCI-H1437; first compound 0.005 µM): 0.845
relative viability (NCI-H1437; first compound 0.01581 µM): 0.974
relative viability (NCI-H1437; first compound 0.05 µM): 0.932
relative viability (NCI-H1437; first compound 0.1581 µM): 0.856
relative viability (NCI-H1437; first compound 0.5 µM): 0.83
relative viability (NCI-H1666; first compound 0.005 µM): 0.823
relative viability (NCI-H1666; first compound 0.01581 µM): 0.815
relative viability (NCI-H1666; first compound 0.05 µM): 0.859
relative viability (NCI-H1666; first compound 0.1581 µM): 0.758
relative viability (NCI-H1666; first compound 0.5 µM): 0.839
relative viability (NCI-H1792; first compound 0.005 µM): 0.747
relative viability (NCI-H1792; first compound 0.01581 µM): 0.799
relative viability (NCI-H1792; first compound 0.05 µM): 0.667
relative viability (NCI-H1792; first compound 0.1581 µM): 0.726
relative viability (NCI-H1792; first compound 0.5 µM): 0.705
relative viability (NCI-H1975; first compound 0.005 µM): 0.764
relative viability (NCI-H1975; first compound 0.01581 µM): 0.83
relative viability (NCI-H1975; first compound 0.05 µM): 0.823
relative viability (NCI-H1975; first compound 0.1581 µM): 0.688
relative viability (NCI-H1975; first compound 0.5 µM): 0.677
relative viability (NCI-H23; first compound 0.005 µM): 0.704
relative viability (NCI-H23; first compound 0.01581 µM): 0.691
relative viability (NCI-H23; first compound 0.05 µM): 0.529
relative viability (NCI-H23; first compound 0.1581 µM): 0.582
relative viability (NCI-H23; first compound 0.5 µM): 0.63
relative viability (NCI-H358; first compound 0.005 µM): 0.785
relative viability (NCI-H358; first compound 0.01581 µM): 1.01
relative viability (NCI-H358; first compound 0.05 µM): 0.706
relative viability (NCI-H358; first compound 0.1581 µM): 0.845
relative viability (NCI-H358; first compound 0.5 µM): 0.686
relative viability (NCI-H441; first compound 0.005 µM): 0.732
relative viability (NCI-H441; first compound 0.01581 µM): 0.635
relative viability (NCI-H441; first compound 0.05 µM): 0.58
relative viability (NCI-H441; first compound 0.1581 µM): 0.56
relative viability (NCI-H441; first compound 0.5 µM): 0.849
relative viability (NCI-H596; first compound 0.005 µM): 0.765
relative viability (NCI-H596; first compound 0.01581 µM): 0.684
relative viability (NCI-H596; first compound 0.1581 µM): 0.953
relative viability (NCI-H596; first compound 0.5 µM): 0.8
relative viability (NCI-H650; first compound 0.005 µM): 0.525
relative viability (NCI-H650; first compound 0.01581 µM): 0.569
relative viability (NCI-H650; first compound 0.05 µM): 0.525
relative viability (NCI-H650; first compound 0.1581 µM): 0.498
relative viability (NCI-H650; first compound 0.5 µM): 0.547
relative viability (NCI-H838; first compound 0.005 µM): 0.373
relative viability (NCI-H838; first compound 0.01581 µM): 0.434
relative viability (NCI-H838; first compound 0.05 µM): 0.495
relative viability (NCI-H838; first compound 0.1581 µM): 0.349
relative viability (NCI-H838; first compound 0.5 µM): 0.41
relative viability (SK-MES-1; first compound 0.005 µM): 0.624
relative viability (SK-MES-1; first compound 0.01581 µM): 0.681
relative viability (SK-MES-1; first compound 0.05 µM): 0.525
relative viability (SK-MES-1; first compound 0.1581 µM): 0.579
relative viability (SK-MES-1; first compound 0.5 µM): 0.63
relative viability (SW 900; first compound 0.005 µM): 0.497
relative viability (SW 900; first compound 0.01581 µM): 0.681
relative viability (SW 900; first compound 0.05 µM): 0.534
relative viability (SW 900; first compound 0.1581 µM): 0.395
relative viability (SW 900; first compound 0.5 µM): 0.546
